According to ChEMBL document CHEMBL1154398, “Synthesis and activity in enhancing long-term potentiation (LTP) of clausenamide stereoisomers” (2009):

What was measured:
Assay type in all cases: functional
[1] = Nootropic activity in hippocampus assessed as increase in amplitude of population spikes after 15 mins by long-term potentiation enhancement assay relative to control; parameters: concentration or dose not given beside the values
[2] = Nootropic activity in hippocampus assessed as increase in amplitude of population spikes for > 40 mins by long-term potentiation enhancement assay relative to control
[3] = Nootropic activity in hippocampus assessed as increase in amplitude of population spikes after 60 mins by long-term potentiation enhancement assay relative to control; parameters: concentration or dose not given beside the values
[4] = Nootropic activity in hippocampus assessed as increase in amplitude of population spikes after 30 mins by long-term potentiation enhancement assay relative to control; parameters: concentration or dose not given beside the values

Row | Compound | Activity [1] | Activity [2] | Activity [3] | Activity [4]
1 | CN1C(=O)[C@H](O)[C@H](c2ccccc2)[C@H]1[C@H](O)c1ccccc1 | 35% | >30% | 92.3% | 50.9%
2 | CN1C(=O)[C@@H](O)[C@H](c2ccccc2)[C@H]1[C@@H](O)c1ccccc1 | -9.4% | – | 18.2% | -8.1%
3 | CN1C(=O)[C@H](O)[C@H](c2ccccc2)[C@@H]1[C@H](O)c1ccccc1 | 7.2% | – | 5.4% | 0.3%
4 | CN1C(=O)[C@@H](O)[C@@H](c2ccccc2)[C@H]1[C@H](O)c1ccccc1 | -12.7% | – | 22.5% | 2.9%
5 | CN1C(=O)[C@H](O)[C@@H](c2ccccc2)[C@H]1[C@H](O)c1ccccc1 [(+)CLAUSENAMIDE] | -9.4% | – | 6.4% | 10.1%
6 | CN1C(=O)[C@@H](O)[C@@H](c2ccccc2)[C@@H]1[C@H](O)c1ccccc1 | -11.5% | – | -15.4% | -11.9%
7 | CN1C(=O)[C@H](O)[C@H](c2ccccc2)[C@@H]1[C@@H](O)c1ccccc1 | 26.2% | >30% | 105.4% | 41.2%
8 | CN1C(=O)[C@H](O)[C@@H](c2ccccc2)[C@@H]1[C@@H](O)c1ccccc1 [(+)NEOCLAUSENAMIDE] | -0.7% | – | -2.5% | -29.1%
9 | CN1C(=O)[C@@H](O)[C@@H](c2ccccc2)[C@@H]1[C@@H](O)c1ccccc1 | -5.9% | – | -5.1% | -1.8%
10 | CN1C(=O)[C@H](O)[C@H](c2ccccc2)[C@H]1[C@@H](O)c1ccccc1 | -3% | – | 21.7% | 10.1%
11 | CN1C(=O)[C@H](O)[C@@H](c2ccccc2)[C@@H]1[C@H](O)c1ccccc1 | 4.7% | – | -9.4% | -5.3%
12 | CN1C(=O)[C@@H](O)[C@H](c2ccccc2)[C@@H]1[C@H](O)c1ccccc1 | -2.2% | – | 17.3% | -8.8%
13 | CN1C(=O)[C@@H](O)[C@@H](c2ccccc2)[C@H]1[C@@H](O)c1ccccc1 | 1.7% | – | 9.6% | 9.7%
14 | CN1C(=O)[C@H](O)[C@@H](c2ccccc2)[C@H]1[C@@H](O)c1ccccc1 | 36% | >30% | 107.8% | 47.5%
15 | CN1C(=O)[C@@H](O)[C@H](c2ccccc2)[C@H]1[C@H](O)c1ccccc1 | -18.2% | – | – | -34.5%
16 | CN1C(=O)[C@@H](O)[C@H](c2ccccc2)[C@@H]1[C@@H](O)c1ccccc1 | 31.8% | – | 58.1% | 38.5%
